Measured values: patent publication US20240376048A1 (Celgene Corporation, priority 2021, published 2024)

Molecular target: S1P5 (Homo sapiens, UniProt Q9H228)
Test: [35S]-GTPγS binding assay (S1P5 agonism), CHO cell membranes
Format: biochemical
Settings: membranes of CHO cells expressing recombinant S1P5 receptors, measure of S1P5 agonism
Procedure: CHO cells expressing recombinant S1P5 receptors were cultured in 500 cm^2 culture trays and, once confluent, rinsed and detached with cell-lifting buffer (10 mM HEPES, 154 mM NaCl, 6.85 mM EDTA, pH 7.4). Cells were then pelleted by centrifugation, resuspended, and homogenized in membrane preparation buffer (10 mM HEPES and 10 mM EDTA, pH 7.4) using a Polytron PT 1200E homogenizer (Kinematica, Luzern, Switzerland). Cellular proteins were pelleted by centrifugation at 48,000×g at 4° C. for 30 minutes. The resulting supernatant was discarded, and the pellet was re-suspended again in membrane preparation buffer, homogenized for a second time, and then centrifuged again as described above. The final cellular protein pellet was suspended in ice cold resuspension buffer (10 mM HEPES and 0.1 mM EDTA, pH 7.4), divided into aliquots, and stored at −80° C. until use.
Functional binding assays for [^35S]-GTPγS were performed in 96-well non-binding surface plates with a final volume of 200 μL. The test compounds were serially diluted in DMSO and added to assay plates using a Tecan D300E digital printer with a total volume of […]. The control sphingosine-1-phosphate (S1P) was prepared separately by preparing a 400 μM stock solution from a 100 nmol pellet of S1P in 10 mM Na2CO3 with 2% […]. The serial dilution of S1P was done using complete assay buffer (20 mM HEPES, 10 mM MgCl2, 100 mM NaCl, 1 mM EDTA, 0.1% fatty acid free bovine serum albumin (BSA), and 30 μg/mL saponin, pH 7.4) and transferred to wells already containing 0.4 μL DMSO. All the wells were then loaded to a total volume of 40 μL of complete assay buffer, except the non-specific binding (NSB) wells. For NSB wells, 40 μL/well of 50 μM GTPγS (Sigma Aldrich, cat #G8634, St. Louis, MO) was added to wells containing 0.4 μL of DMSO. The assay was started by the addition of 120 μL/well of CHO-SlP receptor membrane solution containing 40 μg/mL of membrane protein, 16.67 μM guanosine diphosphate (GDP; Sigma Aldrich, cat #G7127, St. Louis, MO), and 2.5 mg/mL of WGA PVT SPA beads in complete buffer. Assay plates were then sealed and incubated at room temperature with gentle agitation for 30 minutes. Next, 40 µL/well of 1 nM of [^35S]-GTPγS (PerkinElmer, cat #NEG030X25OUC, Waltham, MA) in basic assay buffer (20 mM HEPES, 10 mM MgCl2, 100 mM NaCl, and 1 mM EDTA, pH7.4) was added to the assay plates to yield a final concentration of 200 pM and the plates were further incubated for 40 minutes at room temperature with gentle agitation. The assay was terminated by centrifugation of the plates at 1000 rpm for 3 minutes using an Eppendorf 5810R centrifuge (Eppendorf, Hamburg, Germany) and G protein bound radioactivity was quantitated using a MicroBeta2 microplate scintillation counter (PerkinElmer, Waltham, MA). As G protein bound radioactivity directly correlates to receptor activation and coupling to the G protein, this assay is a measure of S1P5 agonism.

S1P5, sequence (Q9H228 whole entry, species assumed): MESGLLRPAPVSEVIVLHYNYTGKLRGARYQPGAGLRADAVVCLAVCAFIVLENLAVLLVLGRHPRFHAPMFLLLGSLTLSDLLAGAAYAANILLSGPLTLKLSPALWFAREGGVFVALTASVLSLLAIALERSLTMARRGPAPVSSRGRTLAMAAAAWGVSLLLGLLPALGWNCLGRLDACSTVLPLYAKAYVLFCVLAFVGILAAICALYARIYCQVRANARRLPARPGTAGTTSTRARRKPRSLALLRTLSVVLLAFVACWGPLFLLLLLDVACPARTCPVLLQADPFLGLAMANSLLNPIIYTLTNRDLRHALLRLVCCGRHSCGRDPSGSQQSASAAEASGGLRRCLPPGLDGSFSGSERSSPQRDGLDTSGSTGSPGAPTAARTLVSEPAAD

EC50 [nM] | Structure (SMILES)
1 to 10 | Cc1ccc(COc2ccc3c(c2)CCC3N2CC(C(=O)O)C2)c(Cl)c1 (stereo not shown) [Compound 3, 1-(5-((2-chloro-4-methylbenzyl)oxy)-2,3-dihydro-1H-inden-1-yl)azetidine-3-carboxylic acid]
1 to 10 | O=C(O)C1CN(C2CCc3cc(OCc4cc(F)c(F)cc4F)ccc32)C1 (stereo not shown) [Compound 17, 1-(5-((2,4,5-trifluorobenzyl)oxy)-2,3-dihydro-1H-inden-1-yl)azetidine-3-carboxylic acid]
10 to 100 | Cc1ccc(COc2ccc3c(c2)CCC3N2CC(C(=O)O)C2)cc1C(F)(F)F (stereo not shown) [Compound 2, 1-(5-((4-methyl-3-(trifluoromethyl)benzyl)oxy)-2,3-dihydro-1H-inden-1-yl)azetidine-3-carboxylic acid]
10 to 100 | O=C(O)C1CN(C2CCc3cc(OCc4ccccc4F)ccc32)C1 (stereo not shown) [Compound 11, 1-(5-((2-fluorobenzyl)oxy)-2,3-dihydro-1H-inden-1-yl)azetidine-3-carboxylic acid]
1 to 10 | O=C(O)[C@H]1CCN(C2CCc3cc(OCc4c(Cl)cccc4Cl)ccc32)C1 (single isomer, unassigned) [Compound 24b]
1 to 10 | Cc1cc2c(cc1OCc1c(Cl)cccc1Cl)CCC2N1CCC(C(=O)O)CC1 (stereo not shown) [Compound 37, 1-(5-((2,6-dichlorobenzyl)oxy)-6-methyl-2,3-dihydro-1H-inden-1-yl)piperidine-4-carboxylic acid]
10 to 100 | Cc1ccc(COc2ccc3c(c2)CCC3N2CC(C(=O)O)C2)c(F)c1 (stereo not shown) [Compound 4, 1-(5-((2-fluoro-4-methylbenzyl)oxy)-2,3-dihydro-1H-inden-1-yl)azetidine-3-carboxylic acid]
1 to 10 | CC(C)Oc1ccc(COc2ccc3c(c2)CCC3N2CC(C(=O)O)C2)cc1C(F)(F)F (stereo not shown) [Compound 5, 1-(5-((4-isopropoxy-3-(trifluoromethyl)benzyl)oxy)-2,3-dihydro-1H-inden-1-yl)azetidine-3-carboxylic acid]
10 to 100 | CC(C)Oc1ccc(COc2ccc3c(c2)CCC3N2CC(C(=O)O)C2)cc1C#N (stereo not shown) [Compound 6, 1-(5-((3-cyano-4-isopropoxybenzyl)oxy)-2,3-dihydro-1H-inden-1-yl)azetidine-3-carboxylic acid]
10 to 100 | CC1CC(C(=O)O)CCN1C1CCc2cc(OCc3c(Cl)cccc3Cl)ccc21 (stereo not shown) [Compound 30, 1-(5-((2,6-dichlorobenzyl)oxy)-2,3-dihydro-1H-inden-1-yl)-2-methylpiperidine-4-carboxylic acid]
10 to 100 | CC1(C)CC(C(=O)O)CCN1C1CCc2cc(OCc3c(Cl)cccc3Cl)ccc21 (stereo not shown) [Compound 28, 1-(5-((2,6-dichlorobenzyl)oxy)-2,3-dihydro-1H-inden-1-yl)-2,2-dimethylpiperidine-4-carboxylic acid]
10 to 100 | O=C(O)C1CN(C2CCc3cc(OCc4ccc(F)cc4F)ccc32)C1 (stereo not shown) [Compound 14, 1-(5-((2,4-difluorobenzyl)oxy)-2,3-dihydro-1H-inden-1-yl)azetidine-3-carboxylic acid]
10 to 100 | O=C(O)C1CN(C2CCc3cc(OCc4cc(F)ccc4F)ccc32)C1 (stereo not shown) [Compound 15, 1-(5-((2,5-difluorobenzyl)oxy)-2,3-dihydro-1H-inden-1-yl)azetidine-3-carboxylic acid]
10 to 100 | O=C(O)[C@H]1CCN(C2CCc3cc(OCc4c(Cl)cccc4Cl)ccc32)C1 (single isomer, unassigned) [Compound 24a]
1 to 10 | CC1CC(N2CCC(C(=O)O)CC2)c2ccc(OCc3c(Cl)cccc3Cl)cc21 (stereo not shown) [Compound 38, 1-(5-((2,6-dichlorobenzyl)oxy)-3-methyl-2,3-dihydro-1H-inden-1-yl)piperidine-4-carboxylic acid]
1 to 10 | Cc1ccc(COc2ccc3c(c2)CCC3N2CC(C(=O)O)C2)cc1Cl (stereo not shown) [Compound 1, 1-(5-((3-chloro-4-methylbenzyl)oxy)-2,3-dihydro-1H-inden-1-yl)azetidine-3-carboxylic acid]

EC50 [nM] | Structure (SMILES)
10 to 100 | O=C(O)C1CN(C2CCc3cc(OCc4ccc(F)c(F)c4)ccc32)C1 (stereo not shown) [Compound 19, 1-(5-((3,4-difluorobenzyl)oxy)-2,3-dihydro-1H-inden-1-yl)azetidine-3-carboxylic acid]
1 to 10 | O=C(O)[C@@H]1CCN(C2CCc3cc(OCc4c(Cl)cccc4Cl)ccc32)C1 (single isomer, unassigned) [Compound 25b]
≤ 1 | Cc1c(OCc2c(Cl)cccc2Cl)ccc2c1CCC2N1CCC(C(=O)O)CC1 (stereo not shown) [Compound 36, 1-(5-((2,6-dichlorobenzyl)oxy)-4-methyl-2,3-dihydro-1H-inden-1-yl)piperidine-4-carboxylic acid]
1 to 10 | O=C(O)C1CCN(C2CCc3cc(OCc4c(Cl)cccc4Cl)cc(F)c32)CC1 (stereo not shown) [Compound 32, 1-(5-((2,6-dichlorobenzyl)oxy)-7-fluoro-2,3-dihydro-1H-inden-1-yl)piperidine-4-carboxylic acid]
1 to 10 | O=C(O)C1CCN(C2CCc3cc(OCc4c(Cl)cccc4Cl)c(F)cc32)CC1 (stereo not shown) [Compound 33, 1-(5-((2,6-dichlorobenzyl)oxy)-6-fluoro-2,3-dihydro-1H-inden-1-yl)piperidine-4-carboxylic acid]
1 to 10 | O=C(O)C1CN(C2CCc3cc(OCc4ccc(C5CC5)c(C(F)(F)F)c4)ccc32)C1 (stereo not shown) [Compound 9, 1-(5-((4-cyclopropyl-3-(trifluoromethyl)benzyl)oxy)-2,3-dihydro-1H-inden-1-yl)azetidine-3-carboxylic acid]
10 to 100 | O=C(O)C1CN(C2CCc3cc(OCc4cc(F)cc(F)c4F)ccc32)C1 (stereo not shown) [Compound 18, 1-(5-((2,3,5-trifluorobenzyl)oxy)-2,3-dihydro-1H-inden-1-yl)azetidine-3-carboxylic acid]
10 to 100 | O=C(O)C1CN(C2CCc3cc(OCc4ccc(C5CC5)cc4Cl)ccc32)C1 (stereo not shown) [Compound 8, 1-(5-((2-chloro-4-cyclopropylbenzyl)oxy)-2,3-dihydro-1H-inden-1-yl)azetidine-3-carboxylic acid]
1 to 10 | O=C(O)C1CC2(C1)CN(C1CCc3cc(OCc4c(Cl)cccc4Cl)ccc31)C2 (stereo not shown) [Compound 27, 2-(5-((2,6-dichlorobenzyl)oxy)-2,3-dihydro-1H-inden-1-yl)-2-azaspiro[3.3]heptane-6-carboxylic acid]
10 to 100 | O=C(O)C1CCN(C2CCc3cc(OCc4cccc(C(F)(F)F)c4)ccc32)CC1 (single isomer, unassigned) [Compound 26a, 1-(5-((3-(trifluoromethyl)benzyl)oxy)-2,3-dihydro-1H-inden-1-yl)piperidine-4-carboxylic acid]
100 to 1000 | O=C(O)C1CCN(C2CCc3cc(OCc4cccc(C(F)(F)F)c4)ccc32)CC1 (single isomer, unassigned) [Compound 26b, 1-(5-((3-(trifluoromethyl)benzyl)oxy)-2,3-dihydro-1H-inden-1-yl)piperidine-4-carboxylic acid]
10 to 100 | CC1(C(=O)O)CCN(C2CCc3cc(OCc4c(Cl)cccc4Cl)ccc32)CC1 (stereo not shown) [Compound 29, 1-(5-((2,6-dichlorobenzyl)oxy)-2,3-dihydro-1H-inden-1-yl)-4-methylpiperidine-4-carboxylic acid]
≤ 1 | Cc1cc(OCc2c(Cl)cccc2Cl)cc2c1C(N1CCC(C(=O)O)CC1)CC2 (stereo not shown) [Compound 35, 1-(5-((2,6-dichlorobenzyl)oxy)-7-methyl-2,3-dihydro-1H-inden-1-yl)piperidine-4-carboxylic acid]
10 to 100 | O=C(O)C1CN(C2CCc3cc(OCc4ccc(F)cc4)ccc32)C1 (stereo not shown) [Compound 13, 1-(5-((4-fluorobenzyl)oxy)-2,3-dihydro-1H-inden-1-yl)azetidine-3-carboxylic acid]
10 to 100 | O=C(O)C1CN(C2CCc3cc(OCc4ccc(C5CC5)cc4F)ccc32)C1 (stereo not shown) [Compound 7, 1-(5-((4-cyclopropyl-2-fluorobenzyl)oxy)-2,3-dihydro-1H-inden-1-yl)azetidine-3-carboxylic acid]
